Results as given in publication PMC7802075 (ACS Infectious Diseases, 2020).
Read-outs that look alike come from different tables or passages of the source.

Biological target: T1, LmjIPCS (inositol phosphorylceramide synthase from L. major) (Leishmania major, UniProt E9AFX2)
T1 sequence (E9AFX2 1-338): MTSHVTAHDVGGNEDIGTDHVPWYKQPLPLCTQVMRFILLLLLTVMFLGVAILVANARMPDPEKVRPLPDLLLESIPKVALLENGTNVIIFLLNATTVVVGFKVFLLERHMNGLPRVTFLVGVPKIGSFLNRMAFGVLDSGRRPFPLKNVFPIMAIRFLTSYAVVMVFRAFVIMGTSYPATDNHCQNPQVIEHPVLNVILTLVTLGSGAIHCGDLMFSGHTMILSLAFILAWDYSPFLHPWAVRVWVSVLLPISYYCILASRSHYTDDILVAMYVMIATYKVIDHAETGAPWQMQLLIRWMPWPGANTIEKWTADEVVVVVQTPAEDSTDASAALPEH
Assay: biochemical
Type: biochemical
Parameters: inhibition: dose or concentration left out as unconfirmed
Settings: for inhibition: read-out: inhibition LmjIPCS; for inhibition at 20000 µM: read-out: 20mM inhibition LmjIPCS

[1] = NINDS set screen, single concentration printed as 20mM
[2] = single concentration 20mM as printed, screening of NINDS set, sheet Screen 1
[3] = screening of NINDS set, sheet Screen 1

Molecule: Oc1ccc(/C=C/c2cc(O)cc(O)c2)cc1 [RESVERATROL]
- inhibition: -9%

Molecule: CCCCCCCC/C=C/CCCCCCCCOP(=O)([O-])OCC[N+](C)(C)C [ELAIDYLPHOSPHOCHOLINE]
- inhibition (NINDS set screen): -7%

Molecule: CN1CCN(C2=Nc3ccccc3Oc3ccc(Cl)cc32)CC1 [LOXAPINE]
- 20mM inhibition LmjIPCS: 68%

Molecule: O=C(Cn1ccnc1[N+](=O)[O-])NCCO [ETANIDAZOLE]
- inhibition at 20000 µM: 3.58%

Molecule: COLISTIMETHATE
- 20mM inhibition LmjIPCS [1]: 56%

Molecule: CC(=O)OCC(=O)[C@@]1(O)CC[C@H]2[C@@H]3C[C@H](C)C4=CC(=O)C=C[C@]4(C)[C@H]3[C@@H](O)C[C@@]21C [6alpha-METHYLPREDNISOLONE ACETATE]
- 20mM inhibition LmjIPCS [2]: 9%

Molecule: O=NN(CCCl)C(=O)NCCCl [CARMUSTINE]
- inhibition at 20000 µM: 10%

Molecule: C/C=C1\[C@H]2C=C(C)C[C@]1(N)c1ccc(=O)[nH]c1C2 [HUPERZINE A]
- inhibition at 20000 µM: 24%

Molecule: CC(=O)Oc1ccc(Cl)c2cccnc12 [CHLOROACETOXYQUINOLINE]
- inhibition at 20000 µM: 19%

Molecule: CCn1nc(C(=O)O)c(=O)c2cc3c(cc21)OCO3 [CINOXACIN]
- 20mM inhibition LmjIPCS: 53%

Molecule: NCCCCNCCCN [SPERMIDINE]
- inhibition at 20000 µM: 12%

Molecule: COc1cc(NC(C)CCCN)c2ncccc2c1 (centres unmarked) [PRIMAQUINE]
- 20mM inhibition LmjIPCS: 69%

Molecule: CC(C)=CC1C(C(=O)OCc2cccc(Oc3ccccc3)c2)C1(C)C (centres unmarked) [PHENOTHRIN]
- 20mM inhibition LmjIPCS: 39%

Molecule: C[N+]1(CCCCC[N+]2(C)CCCC2)CCCC1 [PENTOLINIUM]
- inhibition [3]: 11%

Molecule: Cc1ncc([N+](=O)[O-])n1CC(C)O (centres unmarked) [SECNIDAZOLE]
- inhibition at 20000 µM: 12%

Molecule: CC(=O)OCC[N+](C)(C)C [ACETYLCHOLINE]
- 20mM inhibition LmjIPCS: 58%

Molecule: O=c1cc(-c2ccc(O)cc2)oc2cc(O)cc(O)c12 [APIGENIN]
- 20mM inhibition LmjIPCS: 59%

Molecule: COc1ccc([C@@H]2Sc3ccccc3N(CCN(C)C)C(=O)[C@@H]2OC(C)=O)cc1 [DILTIAZEM]
- inhibition: 14%

Molecule: COc1cc(C(=O)NCc2ccc(OCCN(C)C)cc2)cc(OC)c1OC [TRIMETHOBENZAMIDE]
- inhibition (NINDS set screen): 28%

Molecule: CC(=O)[C@H]1CC[C@H]2[C@@H]3C[C@H](C)C4=CC(=O)CC[C@]4(C)[C@H]3[C@@H](O)C[C@]12C [MEDRYSONE]
- inhibition at 20000 µM: 14%

Molecule: C[C@H](CS)C(=O)N1CCC[C@H]1C(=O)O [CAPTOPRIL]
- inhibition at 20000 µM: 1.19%

Molecule: CN1CCN(C(c2ccccc2)c2ccccc2)CC1 [CYCLIZINE]
- 20mM inhibition LmjIPCS: 58%

Molecule: O=C1c2ccccc2C(=O)C1c1ccccc1 [PHENINDIONE]
- inhibition (NINDS set screen): 21%

Molecule: COc1ccc(C[C@H](N)C(=O)N[C@H]2[C@@H](O)[C@H](n3cnc4c(N(C)C)ncnc43)O[C@@H]2CO)cc1 [PUROMYCIN]
- inhibition: 20%

Molecule: Nc1ccc(S(=O)(=O)c2ccc(N)cc2)cc1 [DAPSONE]
- inhibition: 1.23%

Molecule: COc1ccc(CCN(C)CCCC(C#N)(c2ccc(OC)c(OC)c2)C(C)C)cc1OC (centres unmarked)
- 20mM inhibition LmjIPCS: 42%

Molecule: NS(=O)(=O)c1cc2c(cc1Cl)N=CNS2(=O)=O [CHLOROTHIAZIDE]
- 20mM inhibition LmjIPCS: 51%

Molecule: CC(=O)Oc1ccccc1C(=O)O [ASPIRIN]
- inhibition at 20000 µM: 23%

Molecule: O=c1c2ccccc2[se]n1-c1ccccc1 [EBSELEN]
- 20mM inhibition LmjIPCS: 42%

Molecule: CO/N=C(\C(=O)N[C@@H]1C(=O)N2C(C(=O)OCOC(=O)C(C)(C)C)=C(/C=C\c3scnc3C)CS[C@H]12)c1csc(N)n1 [CEFDITORIN PIVOXIL]
- 20mM inhibition LmjIPCS: 10%

Molecule: Cc1cc(=O)[nH]c(=S)[nH]1 [METHYLTHIOURACIL]
- inhibition [3]: 7%

Molecule: CCN(CCO)CCCC(C)Nc1ccnc2cc(Cl)ccc12 (centres unmarked) [HYDROXYCHLOROQUINE]
- inhibition (NINDS set screen): 31%

Molecule: Nc1ccc(S(=O)(=O)Nc2ncccn2)cc1 [SULFADIAZINE]
- inhibition at 20000 µM: 18%

Molecule: CCCC(=O)O[C@]1(C(=O)CO)CC[C@H]2[C@@H]3CCC4=CC(=O)CC[C@]4(C)[C@H]3[C@@H](O)C[C@@]21C [HYDROCORTISONE BUTYRATE]
- inhibition at 20000 µM: 5.61%

Molecule: CC(=O)N1CCN(c2ccc(OCC3COC(Cn4ccnc4)(c4ccc(Cl)cc4Cl)O3)cc2)CC1 (centres unmarked) [KETOCONAZOLE]
- 20mM inhibition LmjIPCS: 69%

Molecule: NCc1ccc(S(N)(=O)=O)cc1 [MAFENIDE]
- inhibition at 20000 µM: 11%

Molecule: Oc1ccc(Cl)c2cccnc12 [CLOXYQUIN]
- 20mM inhibition LmjIPCS [1]: 59%

Molecule: COc1ccc(OC)c(C(O)CNC(=O)CN)c1 (centres unmarked) [MIDODRINE]
- inhibition at 20000 µM: 13%

Molecule: Cc1cc2cc3c(C)cc(=O)oc3c(C)c2o1 [TRIOXSALEN]
- 20mM inhibition LmjIPCS [1]: 42%

Molecule: CSC(N)=NCCC[C@H](N)C(=O)O [S-METHYL-L-THIOCITRULLINE ACETATE]
- inhibition [3]: 10%

Molecule: N=C(N)N [GUANIDINE]
- 20mM inhibition LmjIPCS: 20%

Molecule: NC1(C(=O)O)CCCC1 [CYCLOLEUCINE]
- inhibition at 20000 µM: 12%

Molecule: COc1ccc(NS(=O)(=O)c2ccc(N)cc2)nn1 [SULFAMETHOXYPYRIDAZINE]
- inhibition: -15%

Molecule: Cc1onc(-c2ccccc2)c1-c1ccc(S(N)(=O)=O)cc1 [VALDECOXIB]
- inhibition [3]: 3.24%

Molecule: NCCSSCCN [CYSTAMINE]
- inhibition [3]: 6.34%

Molecule: CC[C@@H](CO)NCCN[C@@H](CC)CO [ETHAMBUTOL]
- inhibition: -1.19%

Molecule: COc1ccc(Cl)cc1C(=O)NCCc1ccc(S(=O)(=O)NC(=O)NC2CCCCC2)cc1 [GLYBURIDE]
- inhibition: 13%

Molecule: O=C(CCCN1CCN(c2ccccn2)CC1)c1ccc(F)cc1 [AZAPERONE]
- 20mM inhibition LmjIPCS: 35%

Molecule: COC(=O)C(C)c1ccc(C(=O)c2cccs2)cc1 (centres unmarked) [SUPROFEN METHYL ESTER]
- inhibition (NINDS set screen): -10%

Molecule: CC(COc1ccccc1)NC(C)C(O)c1ccc(O)cc1 (centres unmarked) [ISOXSUPRINE]
- inhibition at 20000 µM: 32%

Molecule: CC1(C)S[C@@H]2[C@H](NC(=O)[C@H](NC(=O)N3CCNC3=O)c3ccccc3)C(=O)N2[C@H]1C(=O)O [AZLOCILLIN]
- inhibition at 20000 µM: -4%

Molecule: C[C@]12C=CC(=O)C=C1CC[C@@H]1[C@@H]2[C@@H](O)C[C@@]2(C)[C@H]1CC[C@]2(O)C(=O)CO [PREDNISOLONE]
- inhibition: 21%

Molecule: CC[C@H]1[C@@H]2C[C@H]3[C@@H]4N(C)c5ccccc5[C@]45C[C@@H]([C@H]2[C@H]5O)N3[C@@H]1O [AJMALINE]
- inhibition at 20000 µM: 23%

Molecule: CN[C@@H](C)[C@H](O)c1ccccc1 [EPHEDRINE (1R,2S)]
- 20mM inhibition LmjIPCS: 8%

Molecule: CN(C)[C@@H]1C(O)=C(C(N)=O)C(=O)[C@@]2(O)C(O)=C3C(=O)c4c(O)cccc4[C@@](C)(O)[C@H]3C[C@@H]12 [TETRACYCLINE]
- 20mM inhibition LmjIPCS: 36%

Molecule: CCCN(CCC)C(=O)C(CCC(=O)O)NC(=O)c1ccccc1 (centres unmarked) [PROGLUMIDE]
- inhibition at 20000 µM: 15%

Molecule: CCCCC(CC)CNC(=N)NC(=N)NCCCCCCNC(=N)NC(=N)NCC(CC)CCCC (centres unmarked) [ALEXIDINE]
- 20mM inhibition LmjIPCS [1]: 47%

Molecule: O=P1(N(CCCl)CCCl)NCCCO1 (centres unmarked) [CYCLOPHOSPHAMIDE]
- inhibition at 20000 µM: -0.87%

Molecule: Nc1c2c(nc3ccccc13)CCCC2 [9-AMINO-1,2,3,4-TETRAHYDROACRIDINE]
- 20mM inhibition LmjIPCS: 13%

Molecule: O=C1CCCN1CC#CCN1CCCC1 [OXOTREMORINE]
- inhibition at 20000 µM: 4%

Molecule: CC(=O)O[C@]1(C(C)=O)CC[C@H]2[C@@H]3C=C(Cl)C4=CC(=O)CC[C@]4(C)[C@H]3CC[C@@]21C [CHLORMADINONE ACETATE]
- inhibition at 20000 µM: 13%

Molecule: CN1C(C(=O)Nc2ccccn2)=C(O)c2ccccc2S1(=O)=O [PIROXICAM]
- inhibition: 15%

Molecule: CC[N+](C)(C)c1cccc(O)c1 [EDROPHONIUM]
- inhibition at 20000 µM: 12%

Molecule: Cc1cnc(NC(=O)C2=C(O)c3ccccc3S(=O)(=O)N2C)s1 [MELOXICAM]
- inhibition: 11%

Molecule: CC[C@@H](C)C(=O)O[C@H]1[C@H](O)[C@H]2[C@@H](CN3C[C@@H](C)CC[C@H]3[C@@]2(C)O)[C@@H]2C[C@]34O[C@]5(O)[C@@H](OC(=O)[C@](C)(O)[C@@H](C)O)CC[C@@]3(C)[C@@H]5[C@@H](OC(C)=O)[C@@H](OC(C)=O)[C@H]4[C@@]21O (stereo in doubt) [PROT[…]]
- inhibition at 20000 µM: 14%

Molecule: [H]/N=C(/N)N[C@H]1[C@H](O)[C@@H](O)[C@H](O[C@@H]2O[C@@H](C)[C@](O)(C=O)[C@H]2O[C@@H]2O[C@@H](CO)[C@H](O)[C@@H](O)[C@@H]2NC)[C@@H](N/C(N)=N\[H])[C@@H]1O [STREPTOMYCIN]
- inhibition: -0.116%

Molecule: CC(=O)N(O)CCCCCNC(=O)CCC(=O)N(O)CCCCCNC(=O)CCC(=O)N(O)CCCCCN [DEFEROXAMINe]
- inhibition: -4.52%

Molecule: OCCN(CCO)c1nc(N2CCCCC2)c2nc(N(CCO)CCO)nc(N3CCCCC3)c2n1 [DIPYRIDAMOLE]
- inhibition (NINDS set screen): -11%

Molecule: COc1c(OC)c2occc2c2oc(=O)ccc12 [PIMPINELLIN]
- inhibition (NINDS set screen): 18%

Molecule: O=C(O)c1cc2ccccc2[nH]1 [INDOLE-2-CARBOXYLIC ACID]
- inhibition [3]: 8%

Molecule: O=C1C(Cl)=C(Cl)C(=O)C(Cl)=C1Cl [CHLORANIL]
- inhibition at 20000 µM: 19%

Molecule: C[C@]12CCC(=O)C=C1CC[C@@H]1[C@@H]2[C@@H](O)C[C@@]2(C)[C@H]1CC[C@]2(O)C(=O)CO [HYDROCORTISONE]
- inhibition: 13%

Molecule: NC12CC3CC(CC(C3)C1)C2 [AMANTADINE]
- inhibition at 20000 µM: 30%

Molecule: Cn1c(=O)c2c(ncn2CC(O)CO)n(C)c1=O (centres unmarked) [DYPHYLLINE]
- inhibition (NINDS set screen): -5.31%

Molecule: O=c1cc(-c2ccccc2)oc2cc(O)cc(O)c12 [CHRYSIN]
- inhibition: 22%

Molecule: Cc1oncc1C(=O)Nc1ccc(C(F)(F)F)cc1 [LEFUNOMIDE]
- 20mM inhibition LmjIPCS: 10%

Molecule: Oc1c(Br)cc(Br)c2cccnc12 [BROXYQUINOLINE]
- 20mM inhibition LmjIPCS: 61%

Molecule: CC1CCC(C(C)C)C(O)C1 (stereo not drawn) [MENTHOL(-)]
- 20mM inhibition LmjIPCS [2]: 4%

Molecule: O=C(O)CN(CC(=O)O)Cc1cc2c(cc1O)Oc1cc(O)c(CN(CC(=O)O)CC(=O)O)cc1C21OC(=O)c2ccccc21 [CALCEIN]
- inhibition at 20000 µM: 0%

Molecule: C[C@@H](N)[C@@H](O)c1ccccc1 [1S,2R-PHENYLPROPANOLAMINE]
- 20mM inhibition LmjIPCS: 19%
